Source: PubChem BioAssay AID588622 (NMMLSC, 2011)
Active and inactive are the calls of the source. No rule for the calls is given here.

Key:
Test in all cases: inhibitors of GTP binding, eight-GTPase multiplex, SAR follow-up, biochemical, bead flow cytometry, Mg non-chelator buffer, round 2 (AID 588622)
Details in all cases: bead-based flow cytometry multiplex GTP binding; for % response (lower = inhibition): at 100 µM (top of the series)
RacACT = target: RacACT
Rab7 = target: Rab7
RacWT = target: RacWT
Cdc42WT = target: Cdc42WT
RhoWT = target: RhoWT

Row | Structure (SMILES) | EC50 (RacACT) [nM] | EC50 (Rab7) [nM] | % response (lower = inhibition) (RacWT) | EC50 (Cdc42WT) [nM] | EC50 (RhoWT) [nM] | EC50 (RacWT) [nM] | % response (lower = inhibition) (RacACT) | % response (lower = inhibition) (Rab7) | % response (lower = inhibition) (Cdc42WT) | % response (lower = inhibition) (RhoWT)
1 | CC1(C)Cc2c(sc(NC(=S)NC(=O)c3ccc(Br)cc3)c2C(=O)O)CO1 | 455 | 431 | – | 539 | 475 | 391 | – | – | – | –
2 | CCC1(C)Cc2c(sc(NC(=S)NC(=O)c3ccccc3)c2C(=O)O)CO1 (stereo not given) | 46 | 35 | – | 51 | 46 | 53 | – | – | – | –
3 | CC1(C)Cc2c(sc(NC(=S)NC(=O)C3CCCCC3)c2C(=O)O)CO1 | 397 | 461 | – | 660 | 814 | 495 | – | – | – | –
4 | CC1(C)Cc2c(sc(NC(=S)NC(=O)c3cccs3)c2C(=O)O)CO1 | 27 | 25 | – | 30 | 33 | 29 | – | – | – | –
5 | COc1ccc(C(=O)NC(=S)Nc2sc3c(c2C(=O)O)CC(C)(C)OC3)cc1 | 243 | 214 | – | 203 | 213 | 197 | – | – | – | –
6 | CC(C)(C)C1Cc2c(sc(NC(=S)NC(=O)c3ccccc3)c2C(=O)O)CO1 (stereo not given) | 146 | 218 | – | 164 | 197 | 139 | – | – | – | –
7 | CC1(C)Cc2c(sc(NC(=S)NC(=O)c3ccco3)c2C(=O)O)CO1 | 59 | 82 | – | 62 | 92 | 59 | – | – | – | –
8 | CC1(C)CCc2sc(NC(=S)NC(=O)c3ccccc3)c(C(=O)O)c2C1 | 48 | 69 | – | 62 | 62 | 48 | – | – | – | –
9 | CC1(C)Cc2c(sc(NC(=S)NC(=O)c3ccc(F)cc3)c2C(=O)O)CO1 | 133 | 77 | – | 171 | 112 | 147 | – | – | – | –
10 | CC1(C)Cc2c(sc(NC(=S)Nc3ccccc3)c2C(=O)O)CO1 | – | 4990 | inactive | – | – | – | inactive | – | inactive | inactive
11 | O=C(NC(=S)Nc1sc2c(c1C(=O)O)CC1(CCCC1)OC2)c1ccccc1 | 80 | 33 | – | 50 | 101 | 56 | – | – | – | –

Continued, values first:

Row | EC50 (RacACT) [nM] | EC50 (Rab7) [nM] | % response (lower = inhibition) (RacWT) | EC50 (Cdc42WT) [nM] | EC50 (RhoWT) [nM] | EC50 (RacWT) [nM] | % response (lower = inhibition) (RacACT) | % response (lower = inhibition) (Rab7) | % response (lower = inhibition) (Cdc42WT) | % response (lower = inhibition) (RhoWT) | Structure (SMILES)
12 | 1180 | 1250 | inactive | 1560 | 1330 | – | – | – | – | – | CC1(C)Cc2c(sc(NC(=S)NC(=O)c3ccccc3Br)c2C(=O)O)CO1
13 | 139 | 97 | – | 109 | 131 | 147 | – | – | – | – | Cc1ccc(C(=O)NC(=S)Nc2sc3c(c2C(=O)O)CC(C)(C)OC3)cc1
14 | – | – | inactive | – | – | – | inactive | inactive | inactive | inactive | CC1(C)Cc2c(sc(NC(=S)NC(=O)c3cccc(Br)c3)c2C(=O)O)CO1
15 | – | 423 | – | 689 | 599 | 491 | inactive | – | – | – | CC1(C)Cc2c(sc(NC(=S)NC(=O)c3cccc(F)c3)c2C(=O)O)CO1
16 | 455 | 316 | – | 443 | 431 | 452 | – | – | – | – | CC1(C)Cc2c(sc(NC(=S)NC(=O)c3ccccc3F)c2C(=O)O)CO1
17 | – | – | inactive | – | – | – | inactive | inactive | inactive | inactive | COc1ccccc1C(=O)NC(=S)Nc1sc2c(c1C(=O)O)CC(C)(C)OC2
18 | 370 | 523 | – | 352 | 486 | 438 | – | – | – | – | Cc1ccccc1C(=O)NC(=S)Nc1sc2c(c1C(=O)O)CC(C)(C)OC2
19 | – | 323 | inactive | 251 | 292 | – | inactive | – | – | – | COc1cccc(C(=O)NC(=S)Nc2sc3c(c2C(=O)O)CC(C)(C)OC3)c1
20 | – | 325 | inactive | 1680 | 1450 | – | inactive | – | – | – | Cc1cccc(C(=O)NC(=S)Nc2sc3c(c2C(=O)O)CC(C)(C)OC3)c1
